Test results as given in US20260217729A1, “HALOGEN-S[…] AMIDE DERIVATIVE, PREPARATION METHOD THEREFOR, AND USE THEREOF” (HANGZHOU ADCORIS BIOPHARMA CO., LTD, priority 2023, published 2026).
Read-outs that look alike come from different tables or passages of the source.

Tests used:
Type in all cases: cell-based
[1] = tested on: human breast cancer cells SK-BR-3; assay: Tumor cell growth inhibitory activity (CCK-8), SK-BR-3; conditions: SK-BR-3 cells, 72 h incubation, read-out: IC50 for inhibiting the growth of tumor cells, SK-BR-3
Description: (§1) Human esophageal cancer cells OE33, human breast cancer cells MDA-MB-231, human gastric cancer cells NCI-N87, human lung cancer cells NCI-H1975, human esophageal cancer cells TE12, human breast cancer cells SK-BR-3, etc., were cultured in RPMI1640 (Cellmax) supplemented with 10% fetal bovine serum (Cellmax). Tumor cells in the exponential growth phase were diluted to a concentration of 1×10^5 cells/mL with culture medium and added to 96-well cell culture plates at 100 μL per well, then returned and incubated overnight in a 37° C. incubator with 5% CO2. On the following day, the compounds were diluted to concentrations of 10000 nM, 2000 nM, 400 nM, 80 nM, 16 nM, 3.2 nM, 0.64 nM, and 0.13 nM with culture medium, and the diluted compounds were added to the 96-well cell culture plates at 2 μL per well, with three replicate wells for each concentration. Negative control and blank control groups without addition of compounds were added with 2 μL of the dilution liquid per well. After the addition of the compounds, the plates were returned to the 37° C. incubator with 5% CO2 to continue the incubation for 72 h. After the incubation, the cell culture plates were removed, and the culture medium in the plates was aspirated using a pipette. Then, 100 μL of culture medium containing 10% CCK-8 was added to each well, and the plates were incubated at 37° C. for 3 h. After the incubation, the plates were removed, kept in the dark, and placed in an ELISA plate. Absorbance was measured at 630 nm as the reference wavelength and 450 nm as the test wavelength. Based on the absorbance values, the IC50 values (Table 1) were calculated using the four-parameter logistic regression method in GraphPad.

[2] = tested on: human breast cancer cells MDA-MB-231; assay: Tumor cell growth inhibitory activity (CCK-8), MDA-MB-231; conditions: MDA-MB-231 cells, 72 h incubation, read-out: IC50 for inhibiting the growth of tumor cells, MDA-MB-231
Description: as §1

[3] = tested on: human gastric cancer cells NCI-N87; assay: Tumor cell growth inhibitory activity (CCK-8), NCI-N87; conditions: 72 h incubation, read-out: IC50 for inhibiting the growth of tumor cells, NCI-N87
Description: as §1

[4] = tested on: human lung cancer cells NCI-H1975; assay: Tumor cell growth inhibitory activity (CCK-8), NCI-H1975; conditions: 72 h incubation, read-out: IC50 for inhibiting the growth of tumor cells, NCI-H1975
Description: as §1

[5] = tested on: Human esophageal cancer cells OE33; assay: Tumor cell growth inhibitory activity (CCK-8), OE33; conditions: 72 h incubation, read-out: IC50 for inhibiting the growth of tumor cells, OE33
Description: as §1

[6] = tested on: human esophageal cancer cells TE12; assay: Tumor cell growth inhibitory activity (CCK-8), TE12; conditions: 72 h incubation, read-out: IC50 for inhibiting the growth of tumor cells, TE12
Description: as §1

Row | Structure (SMILES) | IC50 [1] [nM] | IC50 [2] [nM] | IC50 [3] [nM] | IC50 [4] [nM] | IC50 [5] [nM] | IC50 [6] [nM] | IC50 ([1]; Homo sapiens) [nM] | IC50 ([2]; Homo sapiens) [nM] | IC50 ([3]; Homo sapiens) [nM] | IC50 ([4]; Homo sapiens) [nM] | IC50 ([5]; Homo sapiens) [nM] | IC50 ([6]; Homo sapiens) [nM]
1 | CC[C@@]1(O)C(=O)OCc2c1cc1n(c2=O)Cc2c-1nc1cc(F)c(C)c3c1c2[C@@H](NC(=O)C(F)C(N)=O)CC3 (stereo partly drawn) [Compound 1, N-(2′-fluoro-3′-amino-3′-oxo-propanoyl) exatecan] | 18 | > 1000 | 12.1 | 598 | 37.8 | 341 |  |  |  |  |  | 
2 | CC[C@@]1(O)C(=O)OCc2c1cc1n(c2=O)Cc2c-1nc1cc(F)c(C)c3c1c2[C@@H](NC(=O)CNCC(F)(F)F)CC3 [Compound 2, N—(N-(2′-trifluoroethyl)aminoacetyl)exatecan] | 1 | 238 | 0.443 | 47.3 | 1.09 | 12.7 |  |  |  |  |  | 
3 | CC[C@@]1(O)C(=O)OCc2c1cc1n(c2=O)Cc2c-1nc1cc(F)c(C)c3c1c2[C@@H](NC(=O)C(N)C(F)(F)F)CC3 (stereo partly drawn) [Compound 3, 2′-amino-3′,3′,3′-trifluoropropanoyl exatecan] |  |  |  |  |  |  | 3.01 | 262 | 1.74 | 56.2 | 5.61 | 21.1
4 | CC[C@@]1(O)C(=O)OCc2c1cc1n(c2=O)Cc2c-1nc1cc(F)c(C)c3c1c2[C@@H](NC(=O)[C@@H]1CC(F)(F)CN1)CC3 [Compound 4, 4′,4′-difluoroprolyl exatecan] |  |  |  |  |  |  | 0.35 | 200 | 0.101 | 40.6 | 0.755 | 11.2
5 | CC[C@@]1(O)C(=O)OCc2c1cc1n(c2=O)Cc2c-1nc1cc(F)c(C)c3c1c2[C@@H](NC(=O)C(F)F)CC3 [Compound 5, 2′,2′-difluoroacetyl exatecan] |  |  |  |  |  |  | 2.06 | 403 | 0.873 | 13.7 | 4.34 | 18.5
6 | CC[C@@]1(O)C(=O)OCc2c1cc1n(c2=O)Cc2c-1nc1cc(F)c(C)c3c1c2[C@H](NC(=O)C(C)(F)F)CC3 [Compound 6, 2′,2′-difluoropropionyl exatecan] |  |  |  |  |  |  | 0.32 | 143 | 0.165 | 38.5 | 0.615 | 7.61
7 | CC[C@@]1(O)C(=O)OCc2c1cc1n(c2=O)Cc2c-1nc1cc(F)c(C)c3c1c2[C@@H](NC(=O)CO)CC3 [Dxd, reference compound] |  |  |  |  |  |  | 4.46 | 207 | 1.35 | 73.6 | 6.55 | 21.5
